Results as given in patent publication US5654427A, “Indolocarbazole derivatives to treat a pathological condition of the prostate” (Kyowa Hakko Kogyo Co., Ltd., priority 1995, dated 1997).
Read-outs that look alike come from different tables or passages of the source.

Experiments:
[1] = system: Dunning R-3327 AT-2.1 prostate tumor; experiment: inhibition of growth of Dunning R-3327 AT-2.1 prostate tumor in adult male Copenhagen rats; format: in vivo, rat; details: 3 mg/kg/day s.c.
Text: The AT-2 tumor is a highly anaplastic cell line derived from the original slow-growing androgen-dependent Dunning R-3327 H rat prostate tumor (Issacs et al., Prostate 9:261-281, 1986). The AT-2 tumor model has been used to characterize other potential anti-prostatic cancer agents including linomide (Ichikawa et al., Cancer Research 52:3022-3028, 1992) and suramin (Morton et al., Prostate 17:327-336, 1990) which is undergoing evaluation in clinical trials for androgen-independentprostate cancer (Eisenberger et al., J. Natl. Can. Inst. 85: 611-621, 1993).
Experimental Protocol: Twenty-four inbred male Copenhagen rats were inoculated subcutaneously in the flank with 1×10^6 viable AT-2.1 tumor cells. All animals were allowed to develop tumors of approximately 2.7 cm^3 in size (approximately 14 days) before being randomized into three groups of 8 animals each. Group 1 received daily subcutaneous injections of vehicle alone (1 ml/kg body weight). […] All animals had their tumor sizes evaluated for a period of 16 days. Tumor volume was calculated using the formula (1×w^2)×0.5.

[2] = system: DU-145; experiment: growth inhibition of DU-145 prostate cancer cells (calcein fluorescence); format: cell-based; details: Homo sapiens, DU-145, 72 h, read-out: DU-145 C50
Experimental: (§1) Throughout the experiment the Tsu-Pr1 and Du-Pro1 cells were maintained in RPMI 1640 medium (GIBCO) containing 10% fetal bovine serum (Hyclone), 2 mM glutamine, 100 U/ml penicillin, and 100 μg/ml streptomycin. The PC-3 cells were maintained in Ham's F12K medium (Irvine Scientific) containing 10% fetal bovine serum (Hyclone), 2 mM glutamine, 100 U/ml penicillin, and 100 μg/ml streptomycin. All cell lines were maintained at 37° C. in a humidified atmosphere containing 5% CO2. The DU-145 cells were maintained in minimal essential medium (Gibco), containing 10% fetal bovine serum (Hyclone), 2 mM glutamine, and no antibiotics.
(§2) Tests for growth inhibition by the candidate compounds were conducted by the following procedure. In each well of a 96-well plate (Falcon) were placed 2,500 cells in 0.1 ml of medium. The cultures were incubated overnight after which a 0.1 ml aliquot of culture medium was added to each well. […] Other control wells received medium without any K-252a derivative compounds. Incubation was continued for three days. On day three the number of cells in each well was measured using a calcein fluorescence assay (Bozyczko-Coyne et al. J. Neurosci. Meth. 50, 205-216 (1993)).
(§3) Calcein AM (Molecular Probes, Eugene, Oreg.), an analog of the viable dye fluorescein diacetate, is taken up by cells and cleaved intracellularly to fluorescent salts that are retained by intact membranes of viable cells. This method thus provides a reliable and quantitative measurement of cell survival. Calcein AM was diluted 2× in Dulbeccos phosphate buffered saline (D-PBS) to 2× the final assay concentration (6 μM) and 100 μl was added to culture wells containing 100 μl of medium. The plates were then incubated for 1 hour at 37° C. Cells were then washed 4 times with D-PBS to remove excess calcein not taken up by cells. The plate was read using a Millipore plate reading fluorimeter (Cytofluor 2350) at emission=485 nm and excitation=538 nm. After subtraction of blank values (wells containing medium but no cells), relative fluorescent values reflect a quantitative measurement of cell survival.
(§4) The number of cells in the wells containing functional derivatives was compared to the number of cells in the control wells. The concentration which inhibited cell growth by 50% was calculated and is referred to as the "IC50 ".

[3] = system: Tsu-Pr1; experiment: growth inhibition of Tsu-Pr1 prostate cancer cells (calcein fluorescence); format: cell-based; details: Homo sapiens, TSU-Pr1, 72 h, read-out: Tsu-Pr1 IC50
Experimental: as §1, §2, §3, §4

[4] = target: T1, trkA (Rattus norvegicus, UniProt P35739); experiment: inhibition of NGF-stimulated trk autophosphorylation (tyrosine phosphorylation) in PC12 cells, anti-phosphotyrosine Western blot; format: cell-based; details: for trk 100 nM (inhibition of phosphorylation) / trk 500 nM (inhibition of phosphorylation): NGF 50 ng/ml; for trk 500 nM (inhibition of phosphorylation): 500 nM compound; on trk 100 nM (inhibition of phosphorylation): key: +: Inhibited phosphorylation; -: Did not inhibit phosphorylation; on trk 500 nM (inhibition of phosphorylation): key: +: Inhibited phosphorylation; -: Did not inhibit phosphorylation
T1 construct: are rat pheochromocytoma cells that bear trkA; host or cells: PC12 rat pheochromocytoma cells
T1 sequence (P35739 33-799): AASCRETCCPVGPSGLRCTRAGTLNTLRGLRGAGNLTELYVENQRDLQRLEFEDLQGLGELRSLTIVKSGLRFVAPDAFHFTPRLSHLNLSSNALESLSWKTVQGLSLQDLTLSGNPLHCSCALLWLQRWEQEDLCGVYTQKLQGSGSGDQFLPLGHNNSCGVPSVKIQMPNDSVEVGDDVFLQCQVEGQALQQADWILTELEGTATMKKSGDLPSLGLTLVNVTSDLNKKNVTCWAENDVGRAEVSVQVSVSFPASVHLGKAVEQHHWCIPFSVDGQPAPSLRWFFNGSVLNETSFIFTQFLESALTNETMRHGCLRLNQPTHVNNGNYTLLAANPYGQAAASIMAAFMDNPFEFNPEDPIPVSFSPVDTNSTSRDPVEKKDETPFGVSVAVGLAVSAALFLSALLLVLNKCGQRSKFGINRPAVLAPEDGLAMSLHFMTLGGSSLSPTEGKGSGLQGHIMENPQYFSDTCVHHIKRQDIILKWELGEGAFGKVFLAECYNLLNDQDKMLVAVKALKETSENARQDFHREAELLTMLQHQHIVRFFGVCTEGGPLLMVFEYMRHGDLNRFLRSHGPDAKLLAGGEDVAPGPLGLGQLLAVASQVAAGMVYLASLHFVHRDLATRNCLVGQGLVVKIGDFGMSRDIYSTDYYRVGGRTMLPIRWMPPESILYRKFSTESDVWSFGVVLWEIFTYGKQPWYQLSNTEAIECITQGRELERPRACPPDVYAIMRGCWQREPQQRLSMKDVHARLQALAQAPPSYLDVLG
Experimental: Candidate compounds for the inhibition of prostate cell proliferation were selected according to their ability to inhibit the tyrosine kinase activity associated with the trks.
PC12 cells (ATCC #CRL1721) are rat pheochromocytoma cells that bear trkA and differentiate into sympathetic neurons when treated with NGF. […] Cells were incubated at 37° C. in a humidified atmosphere of 10% CO2 and 90% air. […] The cells in each culture were disrupted and cell lysates were prepared by standard techniques known to those skilled in the art. Each lysate was incubated with anti-trk antibody whereby immune complexes were formed. […] The immune complexes were collected on Protein A-Sepharose beads, separated by SDS-polyacrylamide gel electrophoresis (SDS-PAGE), and transferred to polyvinylidene difluoride (PVDF) membranes (Millipore Corp., Bedford, Mass.), using techniques well known to those skilled in the art. The membranes were incubated with anti-phosphotyrosine antibody, which binds to the tyrosine phosphorylated trks, but not to the un-phosphorylated form of trks. Proteins bound to anti-phosphotyrosine antibody were visualized with enhanced chemiluminescence (ECL, Amersham), and are shown as dark "spots" in FIG. 1.
Measurement of the autophosphorylation of trk provides a good index of trk tyrosine kinase activity, and thereby of trk stimulation.
Inhibition was indicated by the absence of a spot migrating with the trk marker shown at the left side of the figure. Partial inhibition was indicated by a spot of reduced size.

[5] = system: androgen independent human prostate cancer cell lines Tsu-Pr1, DuPro-1, PC-3 and DU-145; experiment: growth inhibition of prostate cancer-derived cell lines, overall (calcein fluorescence); format: cell-based; details: Table 3
Experimental: as §1, §2
Calcein AM (Molecular Probes, Eugene, Oreg.), an analog of the viable dye fluorescein diacetate, is taken up by cells and cleaved intracellularly to fluorescent salts that are retained by intact membranes of viable cells. This method thus provides a reliable and quantitative measurement of cell survival. Calcein AM was diluted 2× in Dulbeccos phosphate buffered saline (D-PBS) to 2× the final assay concentration (6 μM) and 100 μl was added to culture wells containing 100 μl of medium. The plates were then incubated for 1 hour at 37° C. Cells were then washed 4 times with D-PBS to remove excess calcein not taken up by cells. The plate was read using a Millipore plate reading fluorimeter (Cytofluor 2350) at emission=485 nm and excitation=538 nm. After subtraction of blank values (wells containing medium but no cells), relative fluorescent values reflect a quantitative measurement of cell survival. […]

[6] = system: Du-Pro1; experiment: growth inhibition of Du-Pro1 prostate cancer cells (calcein fluorescence); format: cell-based; details: Homo sapiens, 72 h, read-out: Du-Pro1 IC50
Experimental: as §1, §2, §3, §4

Compound | trk 100 nM (inhibition of phosphorylation) ([4]; 100 nM compound) | IC50 ([3]; 3 days incubation) | trk 500 nM (inhibition of phosphorylation) [4] | other results
COC(=O)C1(O)CC2OC1(C)n1c3ccccc3c3c4c(c5c6cc(O)ccc6n2c5c31)C(=O)NC4 (stereo not drawn) [Compound I-5] | + |  |  | inhibiting growth of AT-2.1 tumors ([1]; approximately): 50-60%; Tumor volume Day 0 ([1]; vehicle 2.73 ± 0.50): 2.70 ± 1.06 cm^3; Tumor volume Day 3 ([1]; vehicle 6.66 ± 1.48): 5.64 ± 1.32 cm^3; Tumor volume Day 8 ([1]; vehicle 21.0 ± 3.0): 10.7 ± 2.9 cm^3; Tumor volume Day 13 ([1]; vehicle 37.3 ± 4.0): 19.8 ± 5.6 cm^3; Tumor volume Day 16 ([1]; vehicle 58.7 ± 5.0): 24.6 ± 6.2 cm^3; IC50 [2]: 80 nM; IC50 [3]: 70 nM; potency in inhibiting prostate cell line growth, in words [5]: most potent compounds in inhibiting growth in all four cell lines; IC50 [6]: 60 nM
C[S+]([O-])CC1(O)CC2OC1(C)n1c3ccccc3c3c4c(c5c6ccccc6n2c5c31)C(=O)NC4 (stereo not drawn) [Compound I-8] | - | 540 nM | + | 
CN1CC2(CC3OC2(C)n2c4ccccc4c4c5c(c6c7ccccc7n3c6c42)C(=O)NC5)OC1=O (stereo not drawn) [Compound I-15] | + | 510 nM |  | 
CN(C)CC1(O)CC2OC1(C)n1c3ccccc3c3c4c(c5c6ccccc6n2c5c31)C(=O)NC4 (stereo not drawn) [Compound I-16] | + | 210 nM |  | 
CC12OC(CC1(O)CSC1O[C@H](CO)[C@@H](O)[C@H](O)[C@H]1O)n1c3ccccc3c3c4c(c5c6ccccc6n2c5c31)CNC4=O (stereo partly drawn) [Compound I-20] | - | 5700 nM | + | phosphorylation response (FIG. 1, spot) ([4]; 100 nM compound, NGF, Western blot FIG. 1): somewhat diminished (a smaller spot was seen)
COC(=O)C1(O)CC2OC1(C)n1c3ccccc3c3c4c(c5c6ccccc6n2c5c31)C(=O)NC4=O (stereo not drawn) [Compound I-22] | + | 690 nM |  | 
CC12OC(CC1(O)CO)n1c3ccc(Br)cc3c3c4c(c5c6cc(Br)ccc6n2c5c31)CNC4=O (stereo not drawn) [Compound I-42] | + | 90 nM | + | 
COC(=O)C1(O)CC2OC1(C)n1c3ccccc3c3c4c(c5c6cc(CSc7nc8ccccc8[nH]7)ccc6n2c5c31)C(=O)NC4 (stereo not drawn) [Compound I-67] | + |  | + | 
COC(=O)C1(O)CC2OC1(C)n1c3ccccc3c3c4c(c5c6cc(CSCc7ccco7)ccc6n2c5c31)C(=O)NC4 (stereo not drawn) [Compound I-68] | - |  | + | 
COC(=O)C1(O)CC2OC1(C)n1c3ccccc3c3c4c(c5c6cc(C=NN7CCCC7)ccc6n2c5c31)C(=O)NC4 (stereo not drawn) [Compound I-69] | + |  | + | 
COC(=O)C1(O)CC2OC1(C)n1c3ccccc3c3c4c(c5c6cc(C=NNc7ccccn7)ccc6n2c5c31)C(=O)NC4 (stereo not drawn) [Compound I-70] | + |  | + | 
COC(=O)C1(O)CC2OC1(C)n1c3ccccc3c3c4c(c5c6cc(CSCCN(C)C)ccc6n2c5c31)C(=O)NC4 (stereo not drawn) [Compound I-71] | - |  | + | 
COC(=O)C1(O)CC2OC1(C)n1c3ccccc3c3c4c(c5c6cc(CSc7nc[nH]n7)ccc6n2c5c31)C(=O)NC4 (stereo not drawn) [Compound I-72] | - |  | + | 
COC(=O)C1(O)CC2OC1(C)n1c3ccccc3c3c4c(c5c6cc(C=NNC(=N)N)ccc6n2c5c31)C(=O)NC4 (stereo not drawn) [Compound I-73] | + |  | + | 
COC(=O)C1(O)CC2OC1(C)n1c3ccccc3c3c4c(c5c6cc(C=NN7CCOCC7)ccc6n2c5c31)C(=O)NC4 (stereo not drawn) [Compound I-74] | + |  | + | 
COC(=O)C1(O)CC2OC1(C)n1c3ccccc3c3c4c(c5c6cc(C=NN(C)C)ccc6n2c5c31)C(=O)NC4 (stereo not drawn) [Compound I-75] |  |  | + | 
COC(=O)C1(O)CC2OC1(C)n1c3ccccc3c3c4c(c5c6cc(C=NN7CCN(C)CC7)ccc6n2c5c31)C(=O)NC4 (stereo not drawn) [Compound I-76] |  |  | + | 
C=CCn1c2ccccc2c2c3c(c4c5ccccc5n(CC=C)c4c21)C(=O)NC3 [II-1] | - |  | + | 
O=C1NCc2c1c1c3ccccc3n(CCCO)c1c1c2c2ccccc2n1CCCO [II-4] |  |  | + | 
